The record followed here is US12151999B2, “Small molecule compounds having naphthylamine structure and application thereof” (Hangzhou PhecdaMed Co., Ltd., priority 2021, dated 2024).

The test has as its system HEK293Tmtkeima cells. Nature of the test: Functional test of mitophagy inducer (mtKeima imaging, with or without CCCP-induced mitochondrial damage). The format is cell-based, Human. Conditions: HEK293Tmtkeima cells, 5 uM or 10 uM CCCP to induce mitochondrial damage; number of cells in which damaged mitophagy occurs/number of all cells. As to the method: Group 1: Human embryonic kidney transformed cells HEK293Tmtkeima cells were treated with 0 μM, 1.25 μM, 2.5 μM, 5 μM and 10 μM CCCP respectively, and seeded in a 96-well black ELISA PLATE at 1.5*10^5 cells/ml, 100 μL per well. Compound I-2 was added after 25 hours, and 3 replicates were set. At 37° C., under 5% CO2 incubation conditions, photographs were taken every few hours with biotek cytation 5 for a total of 20 hours, with the bright field as the focusing channel, and 9 images were taken per hole, and the images were processed using the instrument software.
Group 2: Human embryonic kidney transformed cells HEK293Tmtkeima cells were seeded in a 96-well black ELISA PLATE at […], 100 μL per well; compounds I-1˜I-44 and UMI-77 were added after 25 hours, set up 3 replicates; under 37° C., 5% CO2 culture conditions, use biotek every few hours Cytation 5 was used to take photos, a total of 20 hours of shooting. In another group of cells under the same conditions, human embryonic kidney-transformed cells HEK293Tmtkeima cells were seeded in a 96-well black enzyme plate at 1.5*10^5 cells/ml, 100 μl per well; after 24 hours, 5 uM or 10 uM CCCP (Carbonyl cyanide) was first added 3-chlorophenylhydrazone) to induce mitochondrial damage, then add I-1˜I-44, UMI-77 1 hour later, set up 3 repetitions; under 37° C., 5% CO2 culture conditions, pictures were taken every few hours with biotek cytation 5, photographs were taken for 20 hours. Another group of human embryonic kidney transformed cells HEK293Tmtkeima cells was seeded at 1.5*10^5 cells/ml in 96-well black ELISA PLATE at 100 μl per well under the same conditions, 24 hours later 5 uM or 10 uM CCCP (Carbonyl cyanide 3-chlorophenylhydrazone) was first added to induce mitochondrial damage, after 1 hour then add I-1 to I-44, UMI-77 and set up 3 replicates. At 37° C., under 5% CO2 incubation conditions, pictures were taken every few hours with biotek cytation 5, photographs were taken for 20 hours, with the bright field as the focusing channel for both groups, and 9 images were taken per hole, and the images were processed using the instrument software.

Each structure is given as a SMILES string.

`O=C(O)C[S+]([O-])c1cc(N(C2CC2)S(=O)(=O)c2ccc(Br)cc2)c2ccccc2c1O` (stereo not drawn) [Compound I-3]: the “The ability of selection to induce autophagy in damaged mitochondria” value (from here on “The ability of selection”) is “++ (moderate ability to selectively induce autophagy in damaged mitochondria (number of cells in which damaged mitophagy occurs/number of all cells in the range of 0.2 to 0.3))”.

Turning to `O=C(O)C[S+]([O-])c1cc(N(C2COC2)S(=O)(=O)c2ccc(Br)cc2)c2ccccc2c1O` (stereo not drawn) [Compound I-4], the “The ability of selection” value is “+ (weak ability to selectively induce autophagy in damaged mitochondria (number of cells in which damaged mitophagy occurs/number of all cells in the range of 0.1 to 0.2))”.

As for `NC(=O)C[S+]([O-])c1cc(NS(=O)(=O)c2ccc(Br)cc2)c2ccccc2c1O` (stereo not drawn) [Compound I-5], the “The ability of selection” value is reported as “+ (weak ability to selectively induce autophagy in damaged mitochondria (number of cells in which damaged mitophagy occurs/number of all cells in the range of 0.1 to 0.2))”.

For `NC(=S)C[S+]([O-])c1cc(NS(=O)(=O)c2ccc(Br)cc2)c2ccccc2c1O` (stereo not drawn) [Compound I-6], the “The ability of selection” value is recorded as “+ (weak ability to selectively induce autophagy in damaged mitochondria (number of cells in which damaged mitophagy occurs/number of all cells in the range of 0.1 to 0.2))”.

Turning to `O=S(=O)(Cc1nn[nH]n1)c1cc(NS(=O)(=O)c2ccc(Br)cc2)c2ccccc2c1O` [Compound I-7-2], the “The ability of selection” value is recorded as “+ (weak ability to selectively induce autophagy in damaged mitochondria (number of cells in which damaged mitophagy occurs/number of all cells in the range of 0.1 to 0.2))”.

With `O=S(=O)(Nc1cc([S+]([O-])Cc2nnc[nH]2)c(O)c2ccccc12)c1ccc(Br)cc1` (stereo not drawn) [Compound I-8], the “The ability of selection” value is “+++ (strong ability to selectively induce autophagy in damaged mitochondria (number of cells in which damaged mitophagy occurs/number of all cells >0.30))”.

In the case of `O=C(O)C[S+]([O-])c1cc(NS(=O)(=O)c2cccs2)c2ccccc2c1O` (stereo not drawn) [Compound I-13-1], the “The ability of selection” value is given as “+++ (strong ability to selectively induce autophagy in damaged mitochondria (number of cells in which damaged mitophagy occurs/number of all cells >0.30))”.

Turning to `O=C(O)CS(=O)(=O)c1cc(NS(=O)(=O)c2cccs2)c2ccccc2c1O` [Compound I-13-2], the “The ability of selection” value is on record as “++ (moderate ability to selectively induce autophagy in damaged mitochondria (number of cells in which damaged mitophagy occurs/number of all cells in the range of 0.2 to 0.3))”.

On to `O=C(O)C[S+]([O-])c1cc(NS(=O)(=O)c2ccc(C(F)(F)F)cc2)c2ccccc2c1O` (stereo not drawn) [Compound I-14-1], for which the “The ability of selection” value is recorded as “++ (moderate ability to selectively induce autophagy in damaged mitochondria (number of cells in which damaged mitophagy occurs/number of all cells in the range of 0.2 to 0.3))”.

For `O=C(O)CS(=O)(=O)c1cc(NS(=O)(=O)c2ccc(C(F)(F)F)cc2)c2ccccc2c1O` [Compound I-14-2], the “The ability of selection” value is reported as “++ (moderate ability to selectively induce autophagy in damaged mitochondria (number of cells in which damaged mitophagy occurs/number of all cells in the range of 0.2 to 0.3))”.

For `COc1ccc(S(=O)(=O)Nc2cc([S+]([O-])CC(=O)O)c(O)c3ccccc23)cc1` (stereo not drawn) [Compound I-15-1], the “The ability of selection” value is listed as “+ (weak ability to selectively induce autophagy in damaged mitochondria (number of cells in which damaged mitophagy occurs/number of all cells in the range of 0.1 to 0.2))”.

Consider `O=C(O)C[S+]([O-])c1cc(NS(=O)(=O)c2ccc(Oc3ccccc3)cc2)c2ccccc2c1O` (stereo not drawn) [Compound I-16-1], for which the “The ability of selection” value is on record as “++ (moderate ability to selectively induce autophagy in damaged mitochondria (number of cells in which damaged mitophagy occurs/number of all cells in the range of 0.2 to 0.3))”.

Turning to `O=C(O)C[S+]([O-])c1cc(NS(=O)(=O)c2ccc(Cl)c(Cl)c2)c2ccccc2c1O` (stereo not drawn) [Compound I-17-1], the “The ability of selection” value was “+++ (strong ability to selectively induce autophagy in damaged mitochondria (number of cells in which damaged mitophagy occurs/number of all cells >0.30))”.

For the compound `O=C(O)C[S+]([O-])c1cc(NS(=O)(=O)c2ccc(N3CCCC3)cc2)c2ccccc2c1O` (stereo not drawn) [Compound I-18-1], the “The ability of selection” value was “+ (weak ability to selectively induce autophagy in damaged mitochondria (number of cells in which damaged mitophagy occurs/number of all cells in the range of 0.1 to 0.2))”.

As to `O=C(O)C[S+]([O-])c1cc(NS(=O)(=O)c2cc3ccccc3s2)c2ccccc2c1O` (stereo not drawn) [Compound I-19-1], the “The ability of selection” value is on record as “++ (moderate ability to selectively induce autophagy in damaged mitochondria (number of cells in which damaged mitophagy occurs/number of all cells in the range of 0.2 to 0.3))”.

Take `O=C(O)C[S+]([O-])c1cc(NS(=O)(=O)c2ccc(C3CC3)cc2)c2ccccc2c1O` (stereo not drawn) [Compound I-20-1]: the “The ability of selection” value was “++ (moderate ability to selectively induce autophagy in damaged mitochondria (number of cells in which damaged mitophagy occurs/number of all cells in the range of 0.2 to 0.3))”.

Turning to `O=C(O)C[S+]([O-])c1cc(NS(=O)(=O)c2ccc(OC(F)(F)F)cc2)c2ccccc2c1O` (stereo not drawn) [Compound I-21-1], the “The ability of selection” value is recorded as “+++ (strong ability to selectively induce autophagy in damaged mitochondria (number of cells in which damaged mitophagy occurs/number of all cells >0.30))”.

For `O=C(O)C[S+]([O-])c1cc(NS(=O)(=O)c2ccc([N+](=O)[O-])cc2)c2ccccc2c1O` (stereo not drawn) [Compound I-22-1], the “The ability of selection” value is reported as “+ (weak ability to selectively induce autophagy in damaged mitochondria (number of cells in which damaged mitophagy occurs/number of all cells in the range of 0.1 to 0.2))”.

On to `O=C(O)CS(=O)(=O)c1cc(NS(=O)(=O)c2cccc(-c3ccccc3)c2)c2ccccc2c1O` [Compound I-23-2], for which the “The ability of selection” value was “++ (moderate ability to selectively induce autophagy in damaged mitochondria (number of cells in which damaged mitophagy occurs/number of all cells in the range of 0.2 to 0.3))”.

As to `O=C(O)C[S+]([O-])c1cc(NS(=O)(=O)c2cccc(F)c2)c2ccccc2c1O` (stereo not drawn) [Compound I-24-1], the “The ability of selection” value is listed as “+ (weak ability to selectively induce autophagy in damaged mitochondria (number of cells in which damaged mitophagy occurs/number of all cells in the range of 0.1 to 0.2))”.

For the compound `CN=S(=O)(Nc1cc([S+]([O-])CC(=O)O)c(O)c2ccccc12)c1ccc(Br)cc1` (stereo not drawn) [Compound I-25-1], the “The ability of selection” value is given as “+++ (strong ability to selectively induce autophagy in damaged mitochondria (number of cells in which damaged mitophagy occurs/number of all cells >0.30))”.

Regarding `CN=S(=O)(c1ccc(Br)cc1)N(C)c1cc([S+]([O-])CC(=O)O)c(O)c2ccccc12` (stereo not drawn) [Compound I-26], the “The ability of selection” value was “++ (moderate ability to selectively induce autophagy in damaged mitochondria (number of cells in which damaged mitophagy occurs/number of all cells in the range of 0.2 to 0.3))”.

Turning to `O=C(O)C[S+]([O-])c1cc(N2CCN=S2(=O)c2ccc(Br)cc2)c2ccccc2c1O` (stereo not drawn) [Compound I-27], the “The ability of selection” value is “++ (moderate ability to selectively induce autophagy in damaged mitochondria (number of cells in which damaged mitophagy occurs/number of all cells in the range of 0.2 to 0.3))”.

On to `O=C(O)C[S+]([O-])c1cc(N2CCCN=S2(=O)c2ccc(Br)cc2)c2ccccc2c1O` (stereo not drawn) [Compound I-28], for which the “The ability of selection” value is “+ (weak ability to selectively induce autophagy in damaged mitochondria (number of cells in which damaged mitophagy occurs/number of all cells in the range of 0.1 to 0.2))”.

Consider `O=C(O)C[S+]([O-])c1cc(NS(=O)(=O)c2ccc(Br)cc2)c2cc(Br)ccc2c1O` (stereo not drawn) [Compound I-29], for which the “The ability of selection” value is listed as “+++ (strong ability to selectively induce autophagy in damaged mitochondria (number of cells in which damaged mitophagy occurs/number of all cells >0.30))”.

As for `N#Cc1ccc2c(O)c([S+]([O-])CC(=O)O)cc(NS(=O)(=O)c3ccc(Br)cc3)c2c1` (stereo not drawn) [Compound I-31], the “The ability of selection” value was “+ (weak ability to selectively induce autophagy in damaged mitochondria (number of cells in which damaged mitophagy occurs/number of all cells in the range of 0.1 to 0.2))”.

Consider `COP(=O)(Nc1cc([S+]([O-])CC(=O)O)c(O)c2ccccc12)c1ccc(Br)cc1` (stereo not drawn) [Compound I-33], for which the “The ability of selection” value was “++ (moderate ability to selectively induce autophagy in damaged mitochondria (number of cells in which damaged mitophagy occurs/number of all cells in the range of 0.2 to 0.3))”.
